{
  "source": "patent US7199126B2",
  "about": "“Compositions and treatments for inhibiting kinase and/or HMG-CoA reductase” (Pharmix Corporation, priority 2004, dated 2007)",
  "molecular_target": "T1, human recombinant p38α protein kinase (Homo sapiens, UniProt Q16539)",
  "T1 construct": "purchased UBI (Upstate Biotechnology Inc.) 14–251; host or cells: E. coli",
  "T1 sequence (Q16539 whole entry)": "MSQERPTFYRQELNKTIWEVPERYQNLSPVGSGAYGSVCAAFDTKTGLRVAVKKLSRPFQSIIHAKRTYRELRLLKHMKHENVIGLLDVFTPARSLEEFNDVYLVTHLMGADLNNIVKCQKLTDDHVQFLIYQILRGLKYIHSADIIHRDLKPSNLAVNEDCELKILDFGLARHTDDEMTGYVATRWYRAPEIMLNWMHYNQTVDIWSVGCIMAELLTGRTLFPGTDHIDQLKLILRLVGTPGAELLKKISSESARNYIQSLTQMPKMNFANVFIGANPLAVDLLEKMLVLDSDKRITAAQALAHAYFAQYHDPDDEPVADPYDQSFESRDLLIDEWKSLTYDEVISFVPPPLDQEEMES",
  "test": "Human p38α MAP kinase inhibition assay (cell-free, phosphorylation of myelin basic protein)",
  "type": "biochemical",
  "protocol": "Candidate compound and/or vehicle was preincubated with 0.075 μg/mL enzyme in modified HEPES buffer pH 7.4 at 25° C. for 15 minutes. The reaction was initiated by addition of 100 μM ATP and allowed to proceed for another 60 minutes. The reaction was terminated by aspirating the solution. Phosphorylated MBP was detected by incubation with a mouse monoclonal IgG2a anti-phosphoMBP antibody. Bound anti-phosphoMBP antibody was quantitated by incubation with a HRP conjugated goat anti-mouse IgG.",
  "data": [
    {"smiles": "CCC(C)(C)C(=O)O[C@H]1C[C@@H](C)C=C2C=C[C@H](C)[C@H](CC[C@@H]3C[C@@H](O)CC(=O)O3)[C@H]21", "note": "[Simvastatin sodium]", "values": [
      {"measurement": "IC50", "value": "> 100", "unit": "µM"}
    ]}
  ]
}
